Results published in patent US12403116B2, “Hydroxypentyl benzoic acid diester compound, and preparation method and pharmaceutical application thereof” (CHINESE ACADEMY OF MEDICAL SCIENCES INSTITUTE OF MEDICINAL …, priority 2022, dated 2025).

Experiments:
Assay type in all cases: in vivo, rat
[1] = test system: MCAO/R model rats; test: Neurological function evaluation (Longa 5-level score) in MCAO/R model rats; conditions: for neurological function scores: 24 hours of reperfusion, Longa score; for neurological function scores compared with the NBP group / efficiency (vs NBP group): NBP 5 mg/kg; for neurological function scores compared with the NBP group: result in words; for efficiency (vs L-NBP group): L-NBP 2.5 mg/kg
Procedure: (§1) • SHAM group: sham surgery group • Middle cerebral artery occlusion (MCAO) model group • Butylphthalide (NBP): 5 mg/kg • Levobutylphthalide (L-NBP): 2.5 mg/kg • NRB (Compound 1): 15 mg/kg (equivalent to a dose of 4.9 mg/kg of NBP through conversion) • Low dose of L-NRB (compound 2): 7.5 mg/kg (equivalent to a dose of 2.45 mg/kg of L-NBP through conversion) • High dose of L-NRB (compound 2): 15 mg/kg (equivalent to a dose of 4.9 mg/kg of L-NBP through conversion) • Aspirin group (ASP): 10 mg/kg 2. Administration Method
(§2) The rats in the sham surgery group and the MCAO model group were administered the same amount of normal saline by intraperitoneal administration for 5 consecutive days before modeling, and then the MCAO operation was performed.
(§3) The middle cerebral artery occlusion (MCAO) model was made by thread-occlusion method. The operation process was strictly conducted in aseptic mode. The main operation process was as follows: the rat was anesthetized by intraperitoneal injection of chloral hydrate, the common carotid artery (CCA), external carotid artery (ECA) and internal carotid artery (ICA) were separated, the common carotid artery was clamped with a microarterial clamp, and the branches of the external carotid artery were electrocoagulated with a bipolar electrocoagulation pen. The main trunk of the external carotid artery was separated and ligated at a distance of 3-4 mm from the bifurcation of the common carotid artery. The internal carotid artery was temporarily clamped with a micro artery clamp. A small incision into the external carotid artery was cut with an ophthalmic scissors, and a 4-0 monofilament nylon thread coated with methylpolysiloxane was inserted. A loose knot was made at the incision of the external carotid artery to block the blood reflux of the internal carotid artery. The micro artery clamp of the internal carotid artery was removed, and the nylon thread is gently pushed into the internal carotid artery to reach the anterior cerebral artery in the skull, to block the opening of the middle cerebral artery (MCA), and the insert depth is approximately 18-22 mm. The microarterial clamp of the common carotid artery was removed, the subcutaneous tissue and skin were sutured layer by layer after disinfection, and the nylon thread was slowly draw out at 2 hours after operation, and the reperfusion was conducted. In the sham surgery group, all operations were the same except that nylon thread was not inserted. The rectal temperature of all rats was maintained at 37° C. throughout the entire experimental process.
After 24 hours of reperfusion, all rats were evaluated for neurobehavioral scores using the Longa 5-level scoring method. Longa scoring standard: 0, normal, without neurological impairment; 1, left forelimb extension disorder, weakened function; 2, circling to the left, paralysis of the left forelimb and severe impairment of function, and the rat keeps twisting towards the damaged area after lifting the rat's tail; 3, when walking, tilt to the left; 4, limb paralysis, unconscious consciousness.

[2] = test system: MCAO/R model rats; test: Cerebral infarction area (TTC staining) in MCAO/R model rats; conditions: for infarction area (%): 24 hours of reperfusion, TTC staining; for efficiency (vs L-NBP model group): L-NBP 2.5 mg/kg; for efficiency (vs NBP model group) / cerebral infarction area compared with the NBP group: NBP 5 mg/kg; for cerebral infarction area compared with the NBP group: result in words
Procedure: as §1, §2, §3
After 24 hours of reperfusion, the cerebral infarction area was measured using tetrazolium red (TTC) staining. The rats were killed by cutting the neck, and the whole brain was quickly taken out. After being placed in the refrigerator at −20° C. for a short time and placed on the ice plate, and the olfactory bulb was removed. The forebrain was cut into six slices with a thickness of 2 mm along the coronal plane. The brain slices were placed in 1.5 mL of 2% TTC solution and incubated in dark for 30 minutes. Then the brain slices were fixed in 10% paraformaldehyde overnight, and then photographed for analysis. Use Image-J software to measure and calculate the volume of cerebral infarction.

[3] = test system: rats with middle cerebral artery occlusion (MCAO) model; test: Pre-experiments: reduction of cerebral infarction area in MCAO model rats; conditions: result in words; C compared with B, D compared among 1:2 conjugates
Source text: Based on the effects of both butylphthalide and dexborneol on improving cerebral circulation and protecting cardio cerebral vessels, the inventor team of this application adopted progressive pre-experiments. First, butylphthalide and dexborneol were simply combined in a molar ratio 1:1 to form a composition.

[4] = neurological function score, dose 7.5 mg/kg
[5] = neurological function score, dose 15 mg/kg
[6] = cerebral infarction area, dose 7.5 mg/kg
[7] = cerebral infarction area, dose 15 mg/kg
[8] = neurological function score, dose 2.5 mg/kg

Compound: CCCCC1OC(=O)c2ccccc21 (racemic) [NBP, (R/S)-3-n-butyl-1(3H)-isobenzofuranone, reference compound]
- neurological function scores ([1]; dose 5 mg/kg): 2.3 ± 1.0
- inhibition rate (vs model group) ([1]; neurological function score, dose 5 mg/kg): 32.4%
- infarction inhibition rate (vs model group) ([2]; dose 5 mg/kg): 34.2%
- infarction area (%) ([2]; dose 5 mg/kg): 19.4 ± 7.0 %

Compound: CCCC[C@H](OC(=O)CCC(=O)OC1CC2CCC1(C)C2(C)C)c1ccccc1C(=O)OC1CC2CCC1(C)C2(C)C (stereo in doubt) [L-NRB]
- neurological function scores ([1]; dose 7.5 mg/kg): 1.4 ± 0.7**$
- neurological function scores compared with the NBP group ([1]; dose 7.5 mg/kg, p<0.05): significant reductions
- neurological function scores ([1]; dose 15 mg/kg): 1.1 ± 0.4**$$&
- neurological function scores compared with the NBP group ([1]; dose 15 mg/kg): significant reductions
- inhibition rate (vs model group) [1, 4]: 58.8%
- efficiency (vs L-NBP group) [1, 4]: 22.2%
- efficiency (vs NBP group) [1, 4]: 39.1%
- inhibition rate (vs model group) [1, 5]: 67.6%
- efficiency (vs ASP group) ([1]; neurological function score, dose 15 mg/kg, ASP 10 mg/kg): 31.3%
- efficiency (vs L-NBP group) [1, 5]: 38.9%
- efficiency (vs NBP group) [1, 5]: 52.2%
- efficiency (vs L-NBP model group) [2, 6]: 29.1%
- efficiency (vs NBP model group) [2, 6]: 42.3%
- Efficiency (vs ASP model group) ([2]; cerebral infarction area, dose 15 mg/kg, ASP 10 mg/kg): 56.6%
- efficiency (vs L-NBP model group) [2, 7]: 58.2%
- efficiency (vs NBP model group) [2, 7]: 66.0%
- infarction inhibition rate (vs model group) ([2]; dose 7.5 mg/kg): 62.0%
- infarction area (%) ([2]; dose 7.5 mg/kg): 11.2 ± 4.4**$ %
- cerebral infarction area compared with the NBP group ([2]; dose 7.5 mg/kg, p<0.05): significant reductions
- infarction inhibition rate (vs model group) ([2]; dose 15 mg/kg): 77.6%
- infarction area (%) ([2]; dose 15 mg/kg): 6.6 ± 3.5**$$&& %
- cerebral infarction area compared with the NBP group ([2]; dose 15 mg/kg): significant reductions

Compound: CC(=O)Oc1ccccc1C(=O)O [ASP, Aspirin, reference compound]
- neurological function scores ([1]; dose 10 mg/kg): 1.6 ± 0.5
- inhibition rate (vs model group) ([1]; neurological function score, dose 10 mg/kg): 52.9%
- infarction inhibition rate (vs model group) ([2]; dose 10 mg/kg): 48.5%
- infarction area (%) ([2]; dose 10 mg/kg): 15.2 ± 7.0 %

Compound: CCCC[C@@H]1OC(=O)c2ccccc21 [L-NBP, Levobutylphthalide, reference compound]
- neurological function scores ([1]; dose 2.5 mg/kg): 1.8 ± 0.6
- inhibition rate (vs model group) [1, 8]: 47.1%
- efficiency (vs NBP group) [1, 8]: 21.7%
- efficiency (vs NBP model group) ([2]; cerebral infarction area, dose 2.5 mg/kg): 18.6%
- infarction inhibition rate (vs model group) ([2]; dose 2.5 mg/kg): 46.4%
- infarction area (%) ([2]; dose 2.5 mg/kg): 15.8 ± 6.7 %

Compound: CCCCC(OC(=O)CCC(=O)O[C@@H]1C[C@@H]2CC[C@@]1(C)C2(C)C)c1ccccc1C(=O)O[C@@H]1C[C@@H]2CC[C@@]1(C)C2(C)C (some centres unmarked) [NRB]
- neurological function scores ([1]; dose 15 mg/kg): 1.3 ± 0.5**$
- neurological function scores compared with the NBP group ([1]; dose 15 mg/kg): significant reductions
- inhibition rate (vs model group) [1, 5]: 61.8%
- efficiency (vs NBP group) [1, 5]: 43.5%
- efficiency (vs NBP model group) [2, 7]: 44.8%
- infarction inhibition rate (vs model group) ([2]; dose 15 mg/kg): 63.7%
- infarction area (%) ([2]; dose 15 mg/kg): 10.7 ± 7.9**$ %
- cerebral infarction area compared with the NBP group ([2]; dose 15 mg/kg): significant reductions

Compound: CCCCC(OC(C)=O)c1ccccc1C(=O)O[C@@H]1C[C@@H]2CC[C@@]1(C)C2(C)C (some centres unmarked) [formula B]
- activity (pre-experiments, comparison between conjugates) [3]: only slightly improved

Compound: CCCCC(OC(=O)CCC(=O)O[C@@H]1C[C@@H]2CC[C@@]1(C)C2(C)C)c1ccccc1C(=O)O[C@@H]1C[C@@H]2CC[C@@]1(C)C2(C)C (some centres unmarked) [formula C]
- activity (pre-experiments, comparison between conjugates) [3]: significantly better

Compound: CCCC[C@H](OC(=O)CCC(=O)O[C@@H]1C[C@@H]2CC[C@@]1(C)C2(C)C)c1ccccc1C(=O)O[C@@H]1C[C@@H]2CC[C@@]1(C)C2(C)C [formula D]
- activity (pre-experiments, comparison between conjugates) [3]: superior
